Consider two molecules from patent publication US6500323B1, “Methods and software for designing microfluidic devices” (Caliper Technologies Corp., priority 1999, dated 2002).

In one test the target is Protein Kinase A (PKA) (Homo sapiens, UniProt P17612). The experiment in a line: nonfluorogenic (mobility shift) assay of kinase activity in microfluidic device. Format: biochemical. The note with it: PKA 100 nM, 10 μM F1-Kemptide; different concentrations of inhibitor sipped; FIG. 3C. The method, then: The device illustrated in FIG. 3B was used as described to perform a nonfluorogenic assay of kinase activity, and particularly, to screen for inhibition of kinase activity by inhibitors brought into the device via the external sampling capillary. In particular, Protein Kinase A (PKA) enzyme (100 nM) was placed into well 350, while the fluorescent substrate (10 μM F1-Kemptide) was placed into well 352, different concentrations of an exemplary PKA inhibitor (H-89) were sipped into the reaction channel portion 304 via an external capillary element (the entry point of which is shown as 302) at regular intervals. Flow of materials, including sipping of inhibitor was caused by applying vacuum (as described above) at waste reservoir 358. An electric field was constantly applied across the length of channel segment 310 by virtue of different voltages being applied at reservoirs 354 and 356. The process utilized a 5 second sipping time, with an overall 100 second duty cycle, e.g., reaction time plus separation time plus clearing time.

For test [1], the target named is T1, Gq coupled P2u purinergic receptor (THP-1) (Homo sapiens, UniProt P41231).
T1 construct: cell line that carried the Gq coupled P2u purinergic receptor (THP-1); endogenous in cells; host or cells: THP-1 (human monocytic leukemia cell line)
T1 sequence (P41231 whole entry): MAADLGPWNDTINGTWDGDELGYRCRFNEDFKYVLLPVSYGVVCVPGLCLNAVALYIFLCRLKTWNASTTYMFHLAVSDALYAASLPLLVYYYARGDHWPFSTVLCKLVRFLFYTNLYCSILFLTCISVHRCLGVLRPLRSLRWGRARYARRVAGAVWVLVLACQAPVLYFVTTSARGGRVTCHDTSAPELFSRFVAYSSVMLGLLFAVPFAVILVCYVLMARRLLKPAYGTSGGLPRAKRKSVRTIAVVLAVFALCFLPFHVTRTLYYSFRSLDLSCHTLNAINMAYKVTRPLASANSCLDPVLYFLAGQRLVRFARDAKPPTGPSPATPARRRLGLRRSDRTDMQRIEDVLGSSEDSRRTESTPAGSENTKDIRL
The experiment in a line: model calcium flux assay, dose response in microfluidic device. The note with it: THP-1 cells preloaded with Fluo-3 or Fluo-4; UTP 100, 300, 1000 and 3000 nM; detection 15 seconds after initial exposure; FIG. 2D/2E. In kind it is cell-based. An excerpt: The device shown in FIG. 2C was fabricated and used to test the dose response of a human monocytic leukemia cell line that carried the Gq coupled P2u purinergic receptor (THP-1), as a model calcium flux assay. Briefly, a phospholipase C/IP3/calcium signal transduction pathway is activated when the receptor binds to its ligand, UTP. When the cells are preloaded with a calcium sensitive indicator, i.e., Fluo-3 or Fluo-4 (available from Molecular Probes, Eugene, Oreg.), the transient increase in intracellular calcium is then detected as a fluorescent signal.
In the present example and with reference to FIGS. 2A and 2C, THP-1 cells were preloaded with Fluo-3 or Fluo-4, as well as a nucleic acid stain (Syto-62 from Molecular Probes). The cells were washed and resuspended in Cell Buffer (1.56 ml HBSS, 0.94 ml 33% Ficoll, 5 μl HEPES (1 M stock), 25 μl 100×PBC, 25 μl 10% BSA, and 0.546 ml OPTI-Prep (65% stock)) and added to reservoir 206. Different concentrations of UTP in Cell Buffer (100, 300, 1000 and 3000 nM, respectively) were then added to reagent reservoirs 210-216. […]
In order to monitor the stepwise increase of each UTP reagent solution, an additional marker solution, BODIPY-arginine, was added to the reagent reservoirs 210-216. […] Briefly, the slope of calcium signal (response) vs. Syto 62 signal (cell number) was calculated for each UTP concentration.

With `O=S(=O)(NCCNC/C=C/c1ccc(Br)cc1)c1cccc2cnccc12` [H-89], the “inhibition of kinase activity (deviation from steady state)” value at Protein Kinase A (PKA) is “greatest deviation from steady state (A) is seen with highest inhibitor concentration”.
On to `O=c1ccn([C@@H]2O[C@H](COP(=O)(O)OP(=O)(O)OP(=O)(O)O)[C@@H](O)[C@H]2O)c(=O)[nH]1` [UTP], for which the “calcium signal (response), fluorescent signal from each cell” value in test [1] was “peaks increase discernibly in size with each stepwise addition”.
